Marks after values point to notes of the source that are not given here.
How the values were obtained:
5HT1a [1] = molecular target: T1, 5HT1a (Homo sapiens, UniProt P08908); assay: Functional assay (HTRF, cAMP or IP1), 5HT1a; format: cell-based
T1 sequence (P08908 1-422): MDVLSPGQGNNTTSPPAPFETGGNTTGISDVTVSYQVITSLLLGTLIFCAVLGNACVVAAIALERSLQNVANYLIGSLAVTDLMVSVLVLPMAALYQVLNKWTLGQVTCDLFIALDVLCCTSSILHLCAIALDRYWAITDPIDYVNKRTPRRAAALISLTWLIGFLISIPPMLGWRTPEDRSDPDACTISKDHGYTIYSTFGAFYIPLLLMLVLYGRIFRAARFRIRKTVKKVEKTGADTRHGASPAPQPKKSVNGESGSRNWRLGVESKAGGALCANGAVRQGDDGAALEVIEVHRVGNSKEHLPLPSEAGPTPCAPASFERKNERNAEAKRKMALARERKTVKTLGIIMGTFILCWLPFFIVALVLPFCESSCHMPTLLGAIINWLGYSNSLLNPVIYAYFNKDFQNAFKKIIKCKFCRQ
From the text: (§1) For the functional assay, Homogeneous Time Resolved Fluorescence (HTRF) was used to measure cAMP or IP1 as products of the functional agonist or antagonist binding of 5-HT1a, 2a,2b, 2c, 4e, 6, 7 to their respective ligand (8-OG-DPAT or serotonin). Cellular dielectric spectroscopy was used to measure impedance as the product of the functional agonist or antagonist binding of 5HT1b and determine their respective ligand (serotonin).

5-HT-2c receptor = molecular target: T2, 5-HT-2c receptor (Homo sapiens, UniProt P28335); assay: 5-HT receptor radioligand binding assay, 5-HT-2c; conditions: HEK-293 cells, 3H-mesulergine, read-out: IC50 (concentration causing 50% inhibition of binding)
T2 construct: expressed in transfected cells; host or cells: HEK-293
T2 sequence (P28335 33-458): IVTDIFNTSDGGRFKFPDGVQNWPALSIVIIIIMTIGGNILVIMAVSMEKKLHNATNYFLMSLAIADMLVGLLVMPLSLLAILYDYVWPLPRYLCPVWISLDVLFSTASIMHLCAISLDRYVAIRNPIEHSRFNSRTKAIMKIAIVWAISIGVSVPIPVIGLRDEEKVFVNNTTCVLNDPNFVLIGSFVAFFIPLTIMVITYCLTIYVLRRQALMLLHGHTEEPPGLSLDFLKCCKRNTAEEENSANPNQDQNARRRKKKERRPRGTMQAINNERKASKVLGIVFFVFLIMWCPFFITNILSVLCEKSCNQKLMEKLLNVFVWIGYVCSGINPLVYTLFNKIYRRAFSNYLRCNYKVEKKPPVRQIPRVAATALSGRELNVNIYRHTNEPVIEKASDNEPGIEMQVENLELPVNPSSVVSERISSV
Procedure: (§2) For receptor binding assays, stably expressing 5-HT1a, 1b, 1d and 2c receptors cells (HEK-293, rat cerebral cortex, CHO and HEK-293, respectively) were incubated with 0.3 or 1 nM of their respective radioligand (^3H—OH-DPAT, ^125I CYP, ^3H serotonin and ^3H-mesulergine) alone or in the presence of 1 nM to 10 μM of piromelatine. The bound radioligand was assessed. Non-specific binding was evaluated under the reaction contained with 8-OH-PTA, serotonin and RS-10221 (8-[5-(2,4-Dimethoxy-5-(4-trifluoromethylphenylsulphonamido)phenyl-5-oxopentyl]-1,3,8-triazaspiro[4.5]decane-2,4-dione hydrochloride).

5-HT1d = 5-HT1d (Homo sapiens, UniProt P28221); assay: Functional assay, 5-HT1d; format: cell-based
Chain of 5-HT1d (P28221 whole entry, species assumed): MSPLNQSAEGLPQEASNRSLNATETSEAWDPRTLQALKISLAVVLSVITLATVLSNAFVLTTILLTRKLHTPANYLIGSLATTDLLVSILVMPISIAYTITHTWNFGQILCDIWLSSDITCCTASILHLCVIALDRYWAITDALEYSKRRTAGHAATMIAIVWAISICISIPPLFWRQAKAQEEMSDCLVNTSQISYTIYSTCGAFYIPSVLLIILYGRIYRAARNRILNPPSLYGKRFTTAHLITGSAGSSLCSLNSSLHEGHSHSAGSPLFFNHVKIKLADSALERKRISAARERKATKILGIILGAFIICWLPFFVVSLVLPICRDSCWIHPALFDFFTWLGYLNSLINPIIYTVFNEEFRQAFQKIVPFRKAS
From the text: [Worded in the source for another target; this target is reported under the same test.] as §1

5-HT-1b receptor = molecular target: T3, 5-HT-1b receptor (Rattus norvegicus, UniProt P28564); assay: 5-HT receptor radioligand binding assay, 5-HT-1b; conditions: rat cerebral cortex, 125I CYP, read-out: IC50 (concentration causing 50% inhibition of binding)
T3 construct: stably expressing 5-HT1a, 1b, 1d and 2c receptors cells (HEK-293, rat cerebral cortex, CHO and HEK-293, respectively); from tissue; host or cells: rat cerebral cortex
T3 sequence (P28564 whole entry): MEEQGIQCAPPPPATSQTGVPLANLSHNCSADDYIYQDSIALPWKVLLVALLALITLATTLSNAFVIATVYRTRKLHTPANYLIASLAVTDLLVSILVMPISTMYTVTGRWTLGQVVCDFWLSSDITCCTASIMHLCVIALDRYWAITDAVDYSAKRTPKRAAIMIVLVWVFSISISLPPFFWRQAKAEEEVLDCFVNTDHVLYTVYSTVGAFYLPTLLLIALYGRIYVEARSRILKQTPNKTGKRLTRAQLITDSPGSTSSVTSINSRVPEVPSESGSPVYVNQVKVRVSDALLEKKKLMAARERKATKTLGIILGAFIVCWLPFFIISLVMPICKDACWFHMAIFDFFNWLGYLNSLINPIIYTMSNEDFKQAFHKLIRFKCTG
Procedure: as §2

5-HT-2a receptor = 5-HT-2a receptor (Homo sapiens, UniProt P28223); assay: 5-HT receptor binding, 5-HT-2a; conditions: read-out: IC50 (concentration causing 50% inhibition of binding)
Chain of 5-HT-2a receptor (P28223 whole entry): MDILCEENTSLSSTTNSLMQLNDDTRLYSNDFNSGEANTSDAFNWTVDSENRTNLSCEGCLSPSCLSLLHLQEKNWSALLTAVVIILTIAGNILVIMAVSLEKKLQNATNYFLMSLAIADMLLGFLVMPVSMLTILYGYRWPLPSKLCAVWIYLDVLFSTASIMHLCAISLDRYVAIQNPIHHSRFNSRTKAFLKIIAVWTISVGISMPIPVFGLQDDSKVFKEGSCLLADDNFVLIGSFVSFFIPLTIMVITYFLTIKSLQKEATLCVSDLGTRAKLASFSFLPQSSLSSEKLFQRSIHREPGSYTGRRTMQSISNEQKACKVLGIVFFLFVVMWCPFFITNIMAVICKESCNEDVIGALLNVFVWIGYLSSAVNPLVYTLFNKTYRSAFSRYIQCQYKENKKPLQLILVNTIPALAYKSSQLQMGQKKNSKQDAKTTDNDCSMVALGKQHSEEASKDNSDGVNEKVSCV

5-HT1b = 5-HT1b (Homo sapiens, UniProt P28222); assay: Functional assay (cellular dielectric spectroscopy, impedance), 5-HT1b; format: cell-based
Chain of 5-HT1b (P28222 whole entry, species assumed): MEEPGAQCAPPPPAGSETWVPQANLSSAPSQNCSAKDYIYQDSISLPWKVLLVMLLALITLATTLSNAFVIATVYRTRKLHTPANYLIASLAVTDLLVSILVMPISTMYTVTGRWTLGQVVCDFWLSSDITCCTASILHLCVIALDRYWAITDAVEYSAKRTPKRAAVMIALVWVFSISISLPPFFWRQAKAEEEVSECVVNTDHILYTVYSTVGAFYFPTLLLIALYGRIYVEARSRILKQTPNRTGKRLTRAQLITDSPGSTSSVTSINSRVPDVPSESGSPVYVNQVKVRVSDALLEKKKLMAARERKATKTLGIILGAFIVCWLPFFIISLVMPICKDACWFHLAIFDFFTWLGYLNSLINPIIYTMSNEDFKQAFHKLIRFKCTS
From the text: as §1

5HT1a [2] = molecular target: T1, 5HT1a; assay: 5-HT receptor radioligand binding assay, 5-HT-1a; set-up: expressed in transfected cells; host or cells: HEK-293; conditions: HEK-293 cells, 3H-OH-DPAT, read-out: IC50 (concentration causing 50% inhibition of binding)
Procedure: as §2

5-HT-7 receptor = 5-HT-7 receptor (Homo sapiens, UniProt P34969); assay: 5-HT receptor binding, 5-HT-7; conditions: read-out: IC50 (concentration causing 50% inhibition of binding)
Chain of 5-HT-7 receptor (P34969 whole entry): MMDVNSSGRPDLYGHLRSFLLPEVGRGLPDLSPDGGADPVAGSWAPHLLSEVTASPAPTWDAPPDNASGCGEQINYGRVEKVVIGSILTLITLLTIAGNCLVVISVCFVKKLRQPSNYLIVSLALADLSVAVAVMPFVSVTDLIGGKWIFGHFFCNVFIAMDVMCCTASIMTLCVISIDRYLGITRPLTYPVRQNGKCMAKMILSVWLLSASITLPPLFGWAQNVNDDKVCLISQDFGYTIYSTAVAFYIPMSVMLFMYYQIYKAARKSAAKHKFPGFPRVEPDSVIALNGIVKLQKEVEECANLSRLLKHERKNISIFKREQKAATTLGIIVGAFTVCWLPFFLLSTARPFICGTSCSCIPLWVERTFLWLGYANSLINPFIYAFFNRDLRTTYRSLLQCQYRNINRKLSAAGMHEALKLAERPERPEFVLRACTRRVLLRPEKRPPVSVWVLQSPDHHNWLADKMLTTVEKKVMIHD

5-HT-1d receptor = molecular target: T4, 5-HT-1d receptor (Rattus norvegicus, UniProt P28565); assay: 5-HT receptor radioligand binding assay, 5-HT-1d; conditions: CHO cells, 3H serotonin, read-out: IC50 (concentration causing 50% inhibition of binding)
T4 construct: expressed in transfected cells; host or cells: CHO
T4 sequence (P28565 whole entry): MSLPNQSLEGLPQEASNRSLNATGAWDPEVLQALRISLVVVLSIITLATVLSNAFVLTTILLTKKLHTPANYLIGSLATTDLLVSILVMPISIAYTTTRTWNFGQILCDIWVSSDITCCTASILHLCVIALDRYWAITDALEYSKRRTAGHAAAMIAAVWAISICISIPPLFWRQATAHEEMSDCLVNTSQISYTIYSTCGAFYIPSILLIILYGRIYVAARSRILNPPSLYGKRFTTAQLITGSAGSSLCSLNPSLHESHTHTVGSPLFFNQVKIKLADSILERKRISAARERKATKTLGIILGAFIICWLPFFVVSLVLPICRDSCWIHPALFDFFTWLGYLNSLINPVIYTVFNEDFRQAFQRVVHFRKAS
Procedure: as §2

[3] = system: patients with early symptomatic Alzheimer's disease; assay: Randomized, placebo controlled study of piromelatine in patients with early symptomatic Alzheimer's disease (cNTB, ADAS-Cog14, NPI, PSQI), analysed by 2:107,510,000-107,540,000 locus polymorphism carrier status; format: in vivo, human; set-up: key to Improvement, cNTB / Improvement, PSQI: ns = non-significant effect; deter = deterioration compared to placebo
Procedure: (§3) DNA extraction and SNP genotyping were performed as follows: For 107 patients, whole blood was collected at the time of enrollment, and genomic DNA was extracted from peripheral lymphocytes using a commercial kit. Variant genotyping of a combined Whole Genome and Whole Exome sequencing, was performed. The detection of variants associated with the response of the treatment was performed through a genome wide association study (GWAS) analysis (which is a known case-control paradigm). […] The general case-control allelic test was performed through a Cochran-Armitage trend test. […] The stratification was assessed by a complete-linkage hierarchical clustering using the pairwise population concordance as a constraint. The SNP calling was done on the aligned BAM files using DRAGEN: support.illumina.com/help/DRAGEN_Germline_OLH_1000000083701/Content/Source/Informatics/Apps/DRAGENGermlineSmallVarCaller_appDRAG.htm and filter SNPs using VQSR: gatk.broadinstitute.org/hc/en-us/articles/360035531612-Variant-Quality-Score-Recalibration-VQSR.
To further explore the relationship between these paradoxical responses and other variables in the study, changes in ADAS-Cog14 and relationships with the other variables for the intermediate dose (20 mg) of piromelatine were analyzed (Table 2). […] Moreover, in this trial, 39% of patients treated with the 20 mg piromelatine that were not carriers of the 2:107,510,000-107,540,000 locus polymorphism improved (decreased)>4 points in the ADAS-Cog14 and thus were considered “responders (beneficial response)” vs. only 8% of the patients treated with the 20 mg piromelatine that were carriers of the 2:107,510,000-107,540,000 locus polymorphism (Table 2).
To further explore the relationship between these paradoxical responses and other variables in the study, changes in cNTB, ADAS-Cog14 and PSQI for the low dose (5 mg) of piromelatine were analyzed (Table 3). […] However, only carriers of a 2:107,510,000-107,540,000 locus polymorphism improved on the computerized Neuropsychological Test Battery (cNTB) upon treatment with the 5 mg piromelatine dose and the main performance domains being the episodic memory domain composite score and attention domain composite score.

5-HT-4 receptor = 5-HT-4 receptor (Homo sapiens, UniProt Q13639); assay: 5-HT receptor binding, 5-HT-4; conditions: read-out: IC50 (concentration causing 50% inhibition of binding)
Chain of 5-HT-4 receptor (Q13639 whole entry): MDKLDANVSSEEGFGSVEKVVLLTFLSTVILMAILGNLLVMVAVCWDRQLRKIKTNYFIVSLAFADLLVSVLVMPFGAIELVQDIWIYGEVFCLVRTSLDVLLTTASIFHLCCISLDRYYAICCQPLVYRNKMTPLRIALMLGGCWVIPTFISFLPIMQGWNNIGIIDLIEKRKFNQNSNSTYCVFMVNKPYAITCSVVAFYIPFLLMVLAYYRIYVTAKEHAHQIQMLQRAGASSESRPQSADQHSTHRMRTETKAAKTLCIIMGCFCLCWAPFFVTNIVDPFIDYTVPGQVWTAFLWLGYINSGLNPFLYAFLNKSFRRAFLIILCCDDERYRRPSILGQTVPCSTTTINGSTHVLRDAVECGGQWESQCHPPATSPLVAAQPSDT

5-HT-6 receptor = 5-HT-6 receptor (Homo sapiens, UniProt P50406); assay: 5-HT receptor binding, 5-HT-6; conditions: read-out: IC50 (concentration causing 50% inhibition of binding)
Chain of 5-HT-6 receptor (P50406 whole entry): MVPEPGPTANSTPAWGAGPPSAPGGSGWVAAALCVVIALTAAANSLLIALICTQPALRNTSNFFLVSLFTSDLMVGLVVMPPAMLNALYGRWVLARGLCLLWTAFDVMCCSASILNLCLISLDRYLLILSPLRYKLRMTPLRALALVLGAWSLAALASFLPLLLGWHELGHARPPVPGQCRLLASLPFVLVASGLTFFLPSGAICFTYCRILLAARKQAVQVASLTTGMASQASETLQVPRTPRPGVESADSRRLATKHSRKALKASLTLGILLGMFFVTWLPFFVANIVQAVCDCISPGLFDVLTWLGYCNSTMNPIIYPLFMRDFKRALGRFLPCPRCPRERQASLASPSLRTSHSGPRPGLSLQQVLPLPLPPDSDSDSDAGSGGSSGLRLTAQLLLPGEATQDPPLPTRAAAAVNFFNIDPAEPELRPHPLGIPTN

[4] = system: patients with early symptomatic Alzheimer's disease; assay: Randomized, placebo controlled study of piromelatine in patients with early symptomatic Alzheimer's disease (cNTB, ADAS-Cog14, NPI, PSQI), analysed by 2:107,510,000-107,540,000 locus polymorphism carrier status; format: in vivo, human; set-up: key: ns = non-significant effect; deter = deterioration; conditions: carriers (N = 12); 20 mg daily for 26 weeks
Procedure: as §3, with “The SNP calling was done on the aligned BAM files using DRAGEN: support.illumina.com/help/DRAGEN_Germline_OLH_1000000083701/Content/Source/Informatics/Apps/DRAGENGermlineSmallVarCaller_appDRAG.htm and filter SNPs using VQSR: gatk.broadinstitute.org/hc/en-us/articles/360035531612-Variant-Quality-Score-Recalibration-VQSR.” left out
(§4) To further explore the relationship between these paradoxical responses and other variables in the study, changes in ADAS-Cog14 and relationships with the other variables for the intermediate dose (20 mg) of piromelatine were analyzed (Table 2). […]
(§5) To further explore the relationship between these paradoxical responses and other variables in the study, changes in cNTB, ADAS-Cog14 and PSQI for the low dose (5 mg) of piromelatine were analyzed (Table 3). […]

[5] = system: 60 different ion channels and receptors of different neurotransmitters and hormones; assay: Full profile of binding to an additional 60 ion channels and receptors; conditions: 10 μM of piromelatine; none of the 60 assays
Procedure: A full profile of binding parameters to an additional 60 different ion channels and receptors of different neurotransmitters and hormones was performed (data not shown because none of the 60 receptor assays yielded a significant (>50%) inhibition by 10 μM of piromelatine).

[6] = system: patients with early symptomatic Alzheimer's disease; assay: Randomized, placebo controlled study of piromelatine in patients with early symptomatic Alzheimer's disease (cNTB, ADAS-Cog14, NPI, PSQI), analysed by 2:107,510,000-107,540,000 locus polymorphism carrier status; format: in vivo, human; set-up: key: ns = non-significant effect; deter = deterioration compared to placebo; conditions: locus polymorphism carriers; 5, 20 and 50 mg daily for 26 weeks; compared to placebo
Procedure: as §3, with “The SNP calling was done on the aligned BAM files using DRAGEN: support.illumina.com/help/DRAGEN_Germline_OLH_1000000083701/Content/Source/Informatics/Apps/DRAGENGermlineSmallVarCaller_appDRAG.htm and filter SNPs using VQSR: gatk.broadinstitute.org/hc/en-us/articles/360035531612-Variant-Quality-Score-Recalibration-VQSR.” left out
as §4, §5

[7] = carriers (N = 12), 20 mg daily for 26 weeks
[8] = carriers, 5 mg daily for 26 weeks
[9] = carriers, 5 mg daily for 26 weeks (N = 5)
[10] = locus polymorphism carriers, 5, 20 and 50 mg daily for 26 weeks, N = 19
[11] = locus polymorphism non-carriers, 5, 20 and 50 mg daily for 26 weeks, N = 59
[12] = locus polymorphism non-carriers, 5, 20 and 50 mg daily for 26 weeks, compared to placebo
[13] = non-carriers (N = 23), 20 mg daily for 26 weeks
[14] = non-carriers, 5 mg daily for 26 weeks
[15] = non-carriers, 5 mg daily for 26 weeks (N = 19)
[16] = whole study population n=352, 5, 20 and 50 mg daily for 6 months

Compound: COc1ccc2[nH]cc(CCNC(=O)c3cc(=O)cco3)c2c1 [piromelatine, N-(2-(5-methoxy-1H-indol-3-yl)ethyl)-4-oxo-4H-pyran-2-carboxamide]
- agonist activity in the functional assay (5HT1a [1]): moderate agonist activity
- IC50 (5-HT-2c receptor): 2800 nM
- agonist activity in the functional assay (5-HT1d): moderate agonist activity
- IC50 (5-HT-1b receptor): 8 µM
- IC50 (5-HT-2a receptor): > 10 µM
- agonist activity in the functional assay (5-HT1b): Low agonist activity
- IC50 (5HT1a [2]): 600 nM
- IC50 (5-HT-7 receptor): > 10 µM
- IC50 (5-HT-1d receptor): 460 nM
- ADAS-Cog14 % Responders (decrease ≥ 4) [3, 7]: 8%
- ADAS-Cog14 Change from baseline [3, 7]: 3.58
- Improvement, NPI [3, 7]: yes
- Improvement, PSQI [3, 7]: ns
- Improvement, cNTB [3, 7]: yes
- NPI Change from baseline [3, 7]: −3.08
- PSQI Change from baseline [3, 7]: −0.17
- cNTB Change from baseline [3, 7]: 0.44
- ADAS Cogl4, Cohen's d vs placebo > 0.2 [3, 8]: improvement
- PSQI, Cohen's d vs placebo > 0.2 [3, 8]: no improvement
- cNTB, Cohen's d vs placebo > 0.2 [3, 8]: improvement
- ADAS Cogl4 Change from Baseline [3, 9]: −6.40
- PSQI Change from baseline [3, 9]: −3.40
- cNTB Change from baseline [3, 9]: 0.28
- cNTB attention domain composite score ([3]; carriers, 20 mg dose): improved
- cNTB episodic memory domain composite score ([3]; carriers, 20 mg dose): improved
- ADAS-Cog14 Change from baseline [3, 10]: 0.63*
- cNTB Change from baseline [3, 10]: 0.38*
- Improvement, cNTB ([3]; locus polymorphism carriers, 5, 20 and 50 mg daily for 26 weeks, compared to placebo): yes
- ADAS-Cog14 Change from baseline [3, 11]: −1.07*
- cNTB Change from baseline [3, 11]: −0.04
- Improvement, ADAS-Cog14 [3, 12]: yes
- Improvement, cNTB [3, 12]: ns
- ADAS-Cog14 % Responders (decrease ≥ 4) [3, 13]: 39%
- ADAS-Cog14 Change from baseline [3, 13]: −2.91
- Improvement, ADAS-Cog14 [3, 13]: yes
- Improvement, NPI [3, 13]: yes
- Improvement, PSQI [3, 13]: yes
- Improvement, cNTB [3, 13]: ns
- NPI Change from baseline [3, 13]: −2.70
- PSQI Change from baseline [3, 13]: −2.13
- cNTB Change from baseline [3, 13]: −0.06
- ADAS Cogl4, Cohen's d vs placebo > 0.20 [3, 14]: no improvement
- PSQI, Cohen's d vs placebo > 0.20 [3, 14]: improvement
- cNTB, Cohen's d vs placebo > 0.20 [3, 14]: deterioration
- ADAS Cogl4 Change from Baseline [3, 15]: 1.11
- PSQI Change from baseline [3, 15]: −1.11
- cNTB Change from baseline [3, 15]: −0.21
- ADAS-Cog14, drug vs placebo [3, 16]: no statistically significant differences
- global composite score of the cNTB, drug vs placebo [3, 16]: no statistically significant differences
- IC50 (5-HT-4 receptor): > 10 µM
- IC50 (5-HT-6 receptor): > 10 µM
- Improvement, ADAS-Cog14 [4]: deter
- inhibition in the 60 receptor assays [5]: ≤ 50%
- Improvement, ADAS-Cog14 [6]: deter

From patent US11807907B2, “Method for diagnosing and treating subjects having single nucleotide polymorphisms in chromosome 2, 2:107,510,000-107,540,000 locus” (NEURIM PHARMACEUTICALS (1991) LTD., priority 2021, dated 2023)
